Tested on: human mammary cancer-derived KPL-4 cells
Assay: Cell growth inhibition test with KPL-4 cells (WST-1)
Format: cell-based
Conditions: KPL4, 72 hours, read-out: 50% growth inhibition concentration (GI50)
In short: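 Growth inhibition from WST-1 absorbance difference (450 minus 655 nm) after 1 h, relative to untreated control as 100%, giving GI50. KPL-4 cells had 24 h pre-culture in DMEM/10% FCS before 72 h compound exposure at 37 °C under 5% CO2.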

For COCCN(C)C(=O)Cc1c(Br)c(O)cc(O)c1-c1ccccc1 [Compound 37, 2-(2-Bromo-3,5-dihydroxy-6-phenylphenyl)-N-(2-methoxyethyl)-N-methylacetamide], which GI50 is on record?
Its GI50 is no more than 50 µM.

With COC(=O)Cc1c(C(C)=O)c(O)cc(O)c1-c1ccccc1 [Compound 69, Methyl 2-acetyl-3,5-dihydroxy-6-phenylphenylacetate] as the compound, how does the GI50 read?
Its GI50 is no more than 50 µM.

Which GI50 does the source give for CCc1c(O)cc(O)c(-c2ccccc2)c1CCOC [Compound 83, 6-Ethyl-5-(2-methoxyethyl)-4-phenylbenzene-1,3-diol] here?
Its GI50 is no more than 50 µM.

Which GI50 does the source give for OCCCc1c(Br)c(O)cc(O)c1-c1ccccc1 [Compound 104, 6-Bromo-5-(3-hydroxypropyl)-4-phenylbenzene-1,3-diol] here?
Its GI50 is no more than 50 µM.

CCc1c(O)cc(O)c(-c2ccccc2)c1CCCO [Compound 123, 6-Ethyl-5-(3-hydroxypropyl)-4-phenylbenzene-1,3-diol] was tested. Which GI50 did it give?
Its GI50 is no more than 50 µM.

CCc1c(O)cc(O)c(-c2cccc(C)c2)c1CCOC [Compound 130, 6-Ethyl-5-(2-methoxyethyl)-4-(3-methylphenyl)benzene-1,3-diol] was tested. Which GI50 did it give?
Its GI50 is no more than 50 µM.

Tested on: human chronic myelocytic leukemia-derived K562 cells
Assay: Cell growth inhibition test with K562 cells (WST-1)
Format: cell-based
Conditions: 72 hours, read-out: 50% growth inhibition concentration (GI50)
Procedure: In a 96-well plate (Nunc), human chronic myelocytic leukemia-derived K562 cells were sown in an amount of 1500 cells/well, and pre-incubated in 10% FCS-containing Rosewell Park Memorial Institute's Medium (RPMI) 1640 (Nissui) (incubation medium) in a 5% carbon dioxide incubator at 37° C. for 5 hours. Next, a DMSO solution of a test compound controlled at 10 mmol/L was stepwise diluted with the incubation medium, and added to each well in a total amount of 100 μL/well, and further incubated in the 5% carbon dioxide incubator at 37° C. for 72 hours. After the incubation, WST-1-labeled mixture (Rosh Diagnostic) diluted 2-fold with the incubation medium was added thereto in an amount of 20 μL/well, and incubated in the 5% carbon dioxide incubator at 37° C. for 2 hours. Using a microplate spectrophotometer (Biorad's Model 550), the absorbance at 450 nm and 655 nm of each well was measured. The cell growth inhibition activity of the test compound was indicated by the 50% growth inhibition concentration (GI50) thereof, like in Test Example 2.

Which GI50 does the source give for COCCN(C)C(=O)Cc1c(Br)c(O)cc(O)c1-c1ccccc1 [Compound 37, 2-(2-Bromo-3,5-dihydroxy-6-phenylphenyl)-N-(2-methoxyethyl)-N-methylacetamide] here?
Its GI50 is no more than 50 µM.

Which GI50 does the source give for COC(=O)Cc1c(C(C)=O)c(O)cc(O)c1-c1ccccc1 [Compound 69, Methyl 2-acetyl-3,5-dihydroxy-6-phenylphenylacetate] here?
Its GI50 is no more than 50 µM.

CCc1c(O)cc(O)c(-c2ccccc2)c1CCOC [Compound 83, 6-Ethyl-5-(2-methoxyethyl)-4-phenylbenzene-1,3-diol] was tested. Which GI50 did it give?
Its GI50 is no more than 50 µM.

With OCCCc1c(Br)c(O)cc(O)c1-c1ccccc1 [Compound 104, 6-Bromo-5-(3-hydroxypropyl)-4-phenylbenzene-1,3-diol] as the compound, how does the GI50 read?
The GI50 was no more than 50 µM.

Which GI50 does the source give for CCc1c(O)cc(O)c(-c2ccccc2)c1CCCO [Compound 123, 6-Ethyl-5-(3-hydroxypropyl)-4-phenylbenzene-1,3-diol] here?
The GI50 was no more than 50 µM.

How did the GI50 turn out when CCc1c(O)cc(O)c(-c2cccc(C)c2)c1CCOC [Compound 130, 6-Ethyl-5-(2-methoxyethyl)-4-(3-methylphenyl)benzene-1,3-diol] was run?
The GI50 was no more than 50 µM.

How did the GI50 turn out when CCc1c(O)cc(O)c(-c2ccc(F)c(Cl)c2)c1CC1O[C@H](CO)[C@@H](CO)O1 [Compound 293, 5-{[(4R,5R)-4,5-bis(hydroxymethyl)-1,3-dioxolan-2-yl]methyl}-4-(3-chloro-4-fluorophenyl)-6-ethylbenzene-1,3-diol] was run?
Its GI50 is no more than 50 µM.

How did the GI50 turn out when CCc1c(O)cc(O)c(-c2cccc(C(=O)NC)c2)c1CC1O[C@H](CO)[C@@H](CO)O1 [Compound 294, 5-{[(4R,5R)-4,5-Bis(hydroxymethyl)-1,3-dioxolan-2-yl]methyl}-6-ethyl-4-[3-(methylcarbamoyl)phenyl]benzene-1,3-diol] was run?
Its GI50 is no more than 50 µM.

With CCc1c(O)cc(O)c(-c2cccc(C(N)=O)c2)c1CC1O[C@H](CO)[C@@H](CO)O1 [Compound 295, 5-{[(4R,5R)-4,5-bis(hydroxymethyl)-1,3-dioxolan-2-yl]methyl}-4-(3-carbamoylphenyl)-6-ethylbenzene-1,3-diol] as the compound, how does the GI50 read?
The GI50 was no more than 50 µM.

CCc1c(O)cc(O)c(-c2cccc(F)c2)c1CC1O[C@H](CO)[C@@H](CO)O1 [Compound 296, 5-{[(4R,5R)-4,5-bis(hydroxymethyl)-1,3-dioxolan-2-yl]methyl}-6-ethyl-4-(3-fluorophenyl)benzene-1,3-diol] was tested. Which GI50 did it give?
Its GI50 is no more than 50 µM.

How did the GI50 turn out when CCc1c(O)cc(O)c(-c2cccc(O)c2)c1CC1O[C@H](CO)[C@@H](CO)O1 [Compound 298, 5-{[(4R,5R)-4,5-Bis(hydroxymethyl)-1,3-dioxolan-2-yl]methyl}-6-ethyl-4-(3-hydroxyphenyl)benzene-1,3-diol] was run?
Its GI50 is no more than 50 µM.

For CCc1c(O)cc(O)c(-c2ccc(F)c(F)c2)c1CC1O[C@@H](CO)[C@H](CO)O1 [Compound 299, 5-{[(4S,5S)-4,5-bis(hydroxymethyl)-1,3-dioxolan-2-yl]methyl}-4-(3,4-difluorophenyl)-6-ethylbenzene-1,3-diol], which GI50 is on record?
Its GI50 is no more than 50 µM.

With CCc1c(O)cc(O)c(-c2ccc(F)c(Cl)c2)c1CC1O[C@@H](CO)[C@H](CO)O1 [Compound 301, 5-{[(4S,5S)-4,5-Bis(hydroxymethyl)-1,3-dioxolan-2-yl]methyl}-4-(3-chloro-4-fluorophenyl)-6-ethylbenzene-1,3-diol] as the compound, how does the GI50 read?
Its GI50 is no more than 50 µM.

With CCc1c(O)cc(O)c(-c2cccc(C(=O)NCCOC)c2)c1CC1O[C@H](CO)[C@@H](CO)O1 [Compound 303, 5-{[(4R,5R)-4,5-Bis(hydroxymethyl)-1,3-dioxolan-2-yl]methyl}-6-ethyl-4-[3-(2-methoxyethyl)carbamoylphenyl]benzene-1,3-diol] as the compound, how does the GI50 read?
The GI50 was no more than 50 µM.

How did the GI50 turn out when CCc1c(O)cc(O)c(-c2cccc(C(=O)NCCO)c2)c1CC1O[C@H](CO)[C@@H](CO)O1 [Compound 304, 5-{[(4R,5R)-4,5-Bis(hydroxymethyl)-1,3-dioxolan-2-yl]methyl}-6-ethyl-4-[3-(2-hydroxyethyl)carbamoylphenyl]benzene-1,3-diol] was run?
Its GI50 is no more than 50 µM.

With CCc1c(O)cc(O)c(-c2cccc(C(=O)NC3CC3)c2)c1CC1O[C@H](CO)[C@@H](CO)O1 [Compound 305, 5-{[(4R,5R)-4,5-Bis(hydroxymethyl)-1,3-dioxolan-2-yl]methyl}-4-[3-(2-cyclopropylcarbamoyl)phenyl]-6-ethylbenzene-1,3-diol] as the compound, how does the GI50 read?
The GI50 was no more than 50 µM.

With CCCNC(=O)c1cccc(-c2c(O)cc(O)c(CC)c2CC2O[C@H](CO)[C@@H](CO)O2)c1 [Compound 306, 5-{[(4R,5R)-4,5-Bis(hydroxymethyl)-1,3-dioxolan-2-yl]methyl}-6-ethyl-4-[3-(propylcarbamoyl)phenyl]benzene-1,3-diol] as the compound, how does the GI50 read?
The GI50 was no more than 50 µM.

How did the GI50 turn out when CCc1c(O)cc(O)c(-c2cccc(O)c2)c1CC1O[C@H](COC)[C@@H](COC)O1 [Compound 307, 5-{[(4R,5R)-4,5-Bis(methoxymethyl)-1,3-dioxolan-2-yl]methyl}-6-ethyl-4-(3-hydroxyphenyl)benzene-1,3-diol] was run?
The GI50 was no more than 50 µM.

For CCc1c(O)cc(O)c(-c2ccccc2)c1CC1O[C@H](COC)[C@@H](COC)O1 [Compound 308, 5-{[(4R,5R)-4,5-Bis(methoxymethyl)-1,3-dioxolan-2-yl]methyl}-6-ethyl-4-phenylbenzene-1,3-diol], which GI50 is on record?
The GI50 was no more than 50 µM.

How did the GI50 turn out when CCc1c(O)cc(O)c(-c2ccc(OC)c(OC)c2)c1CCOCCO [Compound 309, 6-Ethyl-5-[2-(2-hydroxyethoxy)ethyl]-4-(3,4-dimethoxyphenyl)benzene-1,3-diol] was run?
The GI50 was no more than 50 µM.

How did the GI50 turn out when CC(=O)c1c(O)cc(O)c(-c2cccc(O)c2)c1CCOCCO [Compound 310, 1-{2,4-Dihydroxy-6-[2-(2-hydroxyethoxy)ethyl]-5-(3-hydroxyphenyl)phenyl}ethanone] was run?
The GI50 was no more than 50 µM.

How did the GI50 turn out when CCc1c(O)cc(O)c(-c2ccc(F)c(Cl)c2)c1CCOCCO [Compound 312, 4-(3-Chloro-4-fluorophenyl)-6-ethyl-5-[2-(2-hydroxyethoxy)ethyl]benzene-1,3-diol] was run?
Its GI50 is no more than 50 µM.

How did the GI50 turn out when CCc1c(O)cc(O)c(-c2ccc(F)c(C)c2)c1CCOCCO [Compound 314, 6-Ethyl-4-(4-fluoro-3-methylphenyl)-5-[2-(2-hydroxyethoxy)ethyl]benzene-1,3-diol] was run?
Its GI50 is no more than 50 µM.

How did the GI50 turn out when CCc1c(O)cc(O)c(-c2ccccc2)c1Cc1n[nH]c(=O)o1 [Compound 315, 5-[(2-ethyl-3,5-dihydroxy-6-phenylphenyl)methyl]-3H-1,3,4-oxadiazol-2-one] was run?
Its GI50 is no more than 50 µM.

For CCc1c(O)cc(O)c(-c2ccccc2)c1CCN1CCCC1CO (centres unmarked) [Compound 316, 6-Ethyl-5-{2-[2-(hydroxymethyl)pyrrolidin-1-yl]ethyl}-4-phenylbenzene-1,3-diol], which GI50 is on record?
Its GI50 is no more than 50 µM.

With CCc1c(O)cc(O)c(-c2ccccc2)c1Cc1nn(CCO)c(=O)o1 [Compound 318, 5-[(2-Ethyl-3,5-dihydroxy-6-phenylphenyl)methyl]-3-(2-hydroxyethyl)-3H-1,3,4-oxadiazol-2-one] as the compound, how does the GI50 read?
Its GI50 is no more than 50 µM.

For CCc1c(O)cc(O)c(-c2ccccc2)c1CCN1C(=O)OCC1C(=O)OC (centres unmarked) [Compound 319, Methyl 3-[2-(2-ethyl-3,5-dihydroxy-6-phenylphenyl)ethyl]-2-oxo-1,3-oxazolidine-4-carboxylate], which GI50 is on record?
Its GI50 is no more than 50 µM.

How did the GI50 turn out when CCc1c(O)cc(O)c(-c2ccccc2)c1CCN1CCC(O)C1 (centres unmarked) [Compound 321, 6-Ethyl-5-[2-(3-hydroxypyrrolidin-1-yl)ethyl]-4-phenylbenzene-1,3-diol] was run?
Its GI50 is no more than 50 µM.

With CCc1c(O)cc(O)c(-c2ccccc2)c1CC(=O)N(CCO)CCCOC [Compound 322, 2-(2-Ethyl-3,5-dihydroxy-6-phenylphenyl)-N-(2-hydroxyethyl)-N-(3-methoxypropyl)acetamide] as the compound, how does the GI50 read?
Its GI50 is no more than 50 µM.

Which GI50 does the source give for CCc1c(O)cc(O)c(-c2cccc(OC)c2)c1Cc1nn(CCO)c(=O)o1 [Compound 323, 5-{[2-Ethyl-3,5-dihydroxy-6-(3-methoxyphenyl)phenyl]methyl}-3-(2-hydroxyethyl)-3H-1,3,4-oxadiazol-2-one] here?
The GI50 was no more than 50 µM.

With CCc1c(O)cc(O)c(-c2cccc(O)c2)c1Cc1nn(CCOC)c(=O)o1 [Compound 324, 5-{[2-Ethyl-3,5-dihydroxy-6-(3-hydroxyphenyl)phenyl]methyl}-3-(2-methoxyethyl)-3H-1,3,4-oxadiazol-2-one] as the compound, how does the GI50 read?
The GI50 was no more than 50 µM.

How did the GI50 turn out when CCOC(=O)Oc1cc(OC(=O)OCC)c(-c2ccccc2)c(CCOCCOC)c1CC [Compound 325, 1,5-Bis(ethoxycarbonyloxy)-4-ethyl-3-[2-(2-methoxyethoxy)ethyl]-2-phenylbenzene] was run?
Its GI50 is no more than 50 µM.

How did the GI50 turn out when CCc1c(OC(=O)N(C)C)cc(OC(=O)N(C)C)c(-c2ccccc2)c1CCOCCOC [Compound 326, 1,5-Bis(dimethylcarbamoyloxy)-4-ethyl-3-[2-(2-methoxyethoxy)ethyl]-2-phenylbenzene] was run?
Its GI50 is no more than 50 µM.

For CCc1c(OC(=O)N2CCN(C)CC2)cc(O)c(-c2ccccc2)c1CCOCCOC [Compound 327, 4-Ethyl-3-[2-(2-methoxyethoxy)ethyl]-5-(4-methylpiperazin-1-ylcarbonyloxy)-2-phenylbenzen-1-ol], which GI50 is on record?
Its GI50 is no more than 50 µM.

How did the GI50 turn out when CCc1c(OC(C)=O)cc(OC(C)=O)c(-c2ccccc2)c1CCOCCOC [Compound 328, 1,5-Bis(acetyloxy)-4-ethyl-3-[2-(2-methoxyethoxy)ethyl]-2-phenylbenzene] was run?
The GI50 was no more than 50 µM.

Reference: patent US7538241B2, “Hsp90 family protein inhibitors” (Kyowa Hakko Kogyo Co., Ltd., priority 2003, dated 2009)
